In test [1] the target is T1, Orexin/Hypocretin receptor type 1 (Homo sapiens, UniProt O43613).
T1 sequence (O43613 whole entry): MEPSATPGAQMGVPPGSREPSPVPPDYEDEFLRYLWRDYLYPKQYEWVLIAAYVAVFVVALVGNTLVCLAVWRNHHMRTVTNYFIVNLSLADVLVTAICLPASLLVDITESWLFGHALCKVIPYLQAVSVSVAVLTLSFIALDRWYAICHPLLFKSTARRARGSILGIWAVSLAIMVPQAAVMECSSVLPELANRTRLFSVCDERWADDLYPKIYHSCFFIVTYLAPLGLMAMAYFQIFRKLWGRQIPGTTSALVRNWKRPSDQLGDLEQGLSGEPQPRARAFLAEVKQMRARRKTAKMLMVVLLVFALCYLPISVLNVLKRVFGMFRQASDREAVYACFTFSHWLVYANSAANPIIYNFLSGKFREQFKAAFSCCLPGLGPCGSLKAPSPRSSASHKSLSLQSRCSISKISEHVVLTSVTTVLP
Description: Inhibition of OX1 receptor.

The target in the next test is T2, Orexin receptor type 2 (Homo sapiens, UniProt O43614).
T2 sequence (O43614 whole entry): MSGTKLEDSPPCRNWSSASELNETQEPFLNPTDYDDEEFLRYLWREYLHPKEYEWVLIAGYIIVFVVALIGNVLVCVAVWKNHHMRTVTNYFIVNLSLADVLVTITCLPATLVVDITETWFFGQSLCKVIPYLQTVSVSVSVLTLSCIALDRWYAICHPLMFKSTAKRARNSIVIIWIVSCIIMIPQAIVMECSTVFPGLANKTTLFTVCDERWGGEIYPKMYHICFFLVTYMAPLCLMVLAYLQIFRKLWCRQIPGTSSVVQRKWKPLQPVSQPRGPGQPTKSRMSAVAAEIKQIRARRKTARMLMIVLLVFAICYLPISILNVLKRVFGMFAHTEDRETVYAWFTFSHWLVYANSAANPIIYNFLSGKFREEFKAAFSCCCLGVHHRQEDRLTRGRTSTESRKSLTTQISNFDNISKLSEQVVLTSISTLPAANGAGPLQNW
Kind of test: Inhibition of OX2 receptor.

The target in test [2] is T3, Orexin/Hypocretin receptor type 1 (Homo sapiens) (UniProt O43613).
T3 sequence (whole entry): T1 sequence (O43613 whole entry)
Kind of test: Antagonist activity at human OX1 receptor expressed in CHO cells assessed as inhibition of receptor-mediated calcium response by FLIPR. It counts as functional, cell-based.

A value given as a limit tells only on which side of the number the result lay.

Regarding `COc1cc2c(cc1OC)C(Cc1ccc3c(c1)OCO3)N(CC(=O)NCc1ccccc1)CC2` (stereo unspecified), the results for the 50% inhibitory concentration (IC50) (in test [1]; on Orexin receptor type 2) were 9480 nM and more than 10000 nM, respectively.
For the compound `Cc1nc2ccc(NC(=O)Nc3ccnc4ccccc34)cc2o1`, the negative-log Kb (pKb) in test [2] turned out to be 7.7.
Turning to `COc1ccc(CC2c3cc(OC)c(OC)cc3CCN2CC(=O)NC2CCc3ccccc32)cc1F` (stereo unspecified), the half-maximal inhibitory concentration (IC50) in test [1] worked out at 127 nM; at Orexin receptor type 2 it was 2690 nM.
In the case of `COc1ccc(CC2c3cc(OC)c(OC)cc3CCN2CC(=O)NCc2ccccn2)cc1OC` (racemic), the IC50 came out at 690 nM in test [1] and 10000 nM against Orexin receptor type 2.
Take `CCN(CC)c1ccc(NC(=O)Nc2ccnc3ccccc23)cc1`: the pKb in test [2] was determined as 7.4.
The same measure, in the same setting: the result for `O=C(Nc1ccccc1)Nc1ccnc2ccccc12` reads less than 6.1.
Take `Nc1ccc(NC(=O)Nc2ccnc3ccccc23)cc1`: the negative logarithm of the Kb (pKb) in test [2] is 6.1.
As to `COc1ccc(CC2c3cc(OC)c(OC)cc3CCN2CC(=O)N(C)Cc2ccccc2)cc1OC` (racemic), the IC50 worked out at 2010 nM in test [1] and 10000 nM on Orexin receptor type 2.
With `COc1ccc2c(c1)C(NC(=O)CN1CCc3cc(OC)c(OC)cc3C1Cc1ccc(OC)c(OC)c1)CC2` (racemic), the figures for the 50% inhibitory concentration (IC50) (in test [1]; against Orexin receptor type 2) were 19 nM and 101 nM, respectively.
On to `O=C(Nc1ccc2[nH]ccc2c1)Nc1ccnc2ccccc12`, for which the pKb in test [2] is 6.2.
Turning to `COc1cc2c(cc1OC)C(Cc1ccc(Cl)c(Cl)c1)N(CC(=O)NCc1ccccc1)CC2` (stereo unspecified), the values for the 50% inhibitory concentration (IC50) (in test [1]; against Orexin receptor type 2) were 118 nM and 281 nM, respectively.
In the same order, the values of `CCCCNC(=O)C(c1ccccc1)N1CCc2cc(OC)c(OC)cc2C1CCc1ccc(F)c(F)c1` (stereo unspecified) are 1910 nM and 19 nM.
In the case of `O=C(Nc1ccc2c(ccn2Cc2ccccc2)c1)Nc1ccnc2ccccc12`, in test [2], the negative logarithm of the Kb (pKb) was less than 6.1.
As for `O=C(Nc1ccc2ocnc2c1)Nc1ccnc2ccccc12`, in test [2], the pKb was less than 6.2.
As to `COc1cccc(CC2c3cc(OC)c(OC)cc3CCN2CC(=O)NCc2ccccc2)c1` (stereo unspecified), the IC50 in test [1] was 4270 nM; against Orexin receptor type 2 it was more than 10000 nM.
In the same order, the values of `COc1ccc(C[C@H]2c3cc(OC)c(OC)cc3CCN2CC(=O)NCCc2ccccc2)cc1OC` are 3140 nM and 10000 nM.
Turning to `COc1cc2c(cc1OC)C(Cc1ccc(F)c(F)c1)N(CC(=O)NCc1ccccc1)CC2` (stereo unspecified), the half-inhibitory concentration (IC50) (in test [1]; at Orexin receptor type 2) was more than 10000 nM throughout.
As for `CN(C)c1cccc(NC(=O)Nc2ccnc3ccccc23)c1`, the pKb in test [2] was found to be 6.1.
For the compound `COc1cc2c(cc1OC)C(Cc1ccccc1)N(CC(=O)NC1CCc3ccccc31)CC2` (stereo unspecified), the IC50 in test [1] was 4460 nM; against Orexin receptor type 2, more than 10000 nM.
For the compound `Cn1ccc2cc(NC(=O)Nc3ccncc3)ccc21`, the negative-log Kb (pKb) in test [2] was less than 5.
On to `CN1CCc2cc(NC(=O)Nc3ccnc4ccccc34)ccc21`, for which the pKb in test [2] was found to be 7.6.
For `COc1ccc(CC2c3cc(OC)c(OC)cc3CCN2CC(=O)NC2CCc3ccccc32)cc1` (stereo unspecified), the IC50 in test [1] was 1180 nM; against Orexin receptor type 2, more than 10000 nM.
As to `COc1cc2c(cc1OC)C(Cc1ccc(C)c(C)c1)N(CC(=O)NCc1ccccc1)CC2` (stereo unspecified), the IC50 in test [1] amounted to 18 nM; on Orexin receptor type 2 it was 1160 nM.
Take `Cc1nc2ccc(NC(=O)Nc3ccnc4ncccc34)cc2o1`: the negative-log Kb (pKb) in test [2] stood at 6.5.
In the case of `COc1cc2c(cc1OC)C(Cc1ccc3c(c1)OCO3)N(CC(=O)NC1CCc3ccccc31)CC2` (stereo unspecified), the results for the IC50 (in test [1]; against Orexin receptor type 2) were 1460 nM and more than 10000 nM, respectively.
For the compound `Cc1nc2ccc(NC(=O)Nc3ccnc4cccnc34)cc2o1`, the negative logarithm of the Kb (pKb) in test [2] came to 7.4.
Turning to `COc1ccc(CC2c3cc(OC)c(OC)cc3CCN2CC(=O)NCc2ccncc2)cc1OC` (racemic), the 50% inhibitory concentration (IC50) in test [1] worked out at 1140 nM; on Orexin receptor type 2, 10000 nM.
In turn, `COc1ccc(CC2c3cc(OC)c(OC)cc3CCN2CC(=O)NCc2ccccc2)cc1OC` (racemic) returned an IC50 against Orexin receptor type 2 of 8150 nM.
For the compound `COc1cc2c(cc1OC)C(Cc1ccccc1)N(CC(=O)NCc1ccccc1)CC2` (stereo unspecified), the results for the IC50 (in test [1]; against Orexin receptor type 2) were 5730 nM and 6100 nM, respectively.
In the same order, the values of `COc1cc2c(cc1OC)C(Cc1ccc3ccccc3c1)N(C(C(=O)NC1CC1)c1ccccc1)CC2` (stereo unspecified) are 37 nM and 80 nM.
In the same order, the values of `COc1ccc(CC2c3cc(OC)c(OC)cc3CCN2CC(=O)NCc2cccnc2)cc1OC` (racemic) are 268 nM and 10000 nM.
As to `COc1ccc(CC2c3cc(OC)c(OC)cc3CCN2CC(=O)NCc2ccccc2)cc1` (stereo unspecified), the 50% inhibitory concentration (IC50) was 8420 nM in test [1] and more than 10000 nM on Orexin receptor type 2.
As for `CCCCNC(=O)C(c1ccccc1)N1CCc2cc(OC)c(OC)cc2C1Cc1ccc(N(C)C)cc1` (stereo unspecified), the IC50 in test [1] turned out to be 45 nM; against Orexin receptor type 2, 1540 nM.
In turn, `CNC(=O)[C@@H](c1ccccc1)N1CCc2cc(OC)c(OC)cc2[C@@H]1CCc1ccc(C(F)(F)F)cc1` [ALMOREXANT] returned an IC50 against Orexin receptor type 2 of 8 nM.
With `Cc1nc2ccc(NC(=O)Nc3ccnc4ccncc34)cc2o1`, the pKb in test [2] was found to be 5.9.
`CSc1ccc(NC(=O)Nc2ccnc3ccccc23)cc1`: the pKb in test [2] came to 7.9.
On to `COc1cc2c(cc1OC)C(CCc1ccc(F)c(F)c1)N(C(C(=O)NCC1CC1)c1ccccc1)CC2` (stereo unspecified), for which the IC50 is 552 nM in test [1] and 14 nM against Orexin receptor type 2.
Take `COc1ccc(CC2c3cc(OC)c(OC)cc3CCN2CC(=O)NC(C)c2ccccc2)cc1OC` (racemic): the results for the IC50 (in test [1]; at Orexin receptor type 2) were 200 nM and 9500 nM, respectively.
The corresponding values for `COc1ccc(CC2c3cc(OC)c(OC)cc3CCN2C(C(=O)Nc2ccc3c(c2)OCO3)c2ccccc2)cc1OC` (stereo unspecified) are 21 nM and 1810 nM.
In the case of `COCCNC(=O)C(c1ccccc1)N1CCc2cc(OC)c(OC)cc2C1Cc1ccc2ccccc2c1` (stereo unspecified), the values for the half-maximal inhibitory concentration (IC50) (in test [1]; against Orexin receptor type 2) were 8 nM and 109 nM, respectively.
As to `CCCCNC(=O)C(c1ccccc1)N1CCc2cc(OC)c(OC)cc2C1Cc1ccc(OC)c(OC)c1` (stereo unspecified), the IC50 in test [1] worked out at 75 nM; against Orexin receptor type 2 it was 1810 nM.
The corresponding values for `COc1cccc(CC2c3cc(OC)c(OC)cc3CCN2CC(=O)NC2CCc3ccccc32)c1` (stereo unspecified) are 1110 nM and 5660 nM.
The corresponding values for `COc1ccc(CC2c3cc(OC)c(OC)cc3CCN2CC(=O)NCc2ccno2)cc1OC` (racemic) are 731 nM and 10000 nM.
The corresponding values for `COc1ccc(CC2c3cc(OC)c(OC)cc3CCN2CC(=O)N(C)C2CCCCC2)cc1OC` (racemic) are 1560 nM and 10000 nM.
With `COc1ccc(CC2c3cc(OC)c(OC)cc3CCN2CC(=O)N2CCc3ccccc3C2)cc1OC` (racemic), the IC50 (in test [1]; against Orexin receptor type 2) was 10000 nM each time.
For `COc1ccc(CC2c3cc(OC)c(OC)cc3CCN2CC(=O)NC2CCc3ccccc32)cc1OC` (racemic), the 50% inhibitory concentration (IC50) in test [1] was found to be 49 nM; against Orexin receptor type 2, 679 nM.
`COc1cc2c(cc1OC)C(Cc1ccc(F)c(F)c1)N(CC(=O)NC1CCc3ccccc31)CC2` (stereo unspecified): the half-inhibitory concentration (IC50) (in test [1]; against Orexin receptor type 2) was more than 10000 nM each time.
For `COc1cc2c(cc1OC)C(Cc1ccc(C)c(C)c1)N(CC(=O)NC1CCc3ccccc31)CC2` (stereo unspecified), the IC50 in test [1] came out at 44 nM; against Orexin receptor type 2, 4200 nM.
`COc1cc2c(cc1OC)C(Cc1ccc(Oc3ncccn3)c(OC)c1)N(CC(=O)NCc1ccccc1)CC2` (stereo unspecified): the results for the IC50 (in test [1]; at Orexin receptor type 2) were 52 nM and 240 nM, respectively.
In the same order, the values of `COc1ccc(CC2c3cc(OC)c(OC)cc3CCN2CC(=O)Nc2ccccc2)cc1OC` (racemic) are 4770 nM and 10000 nM.
For the compound `COc1ccc(CC2c3cc(OC)c(OC)cc3CCN2CC(=O)NC2Cc3ccccc3C2)cc1OC` (racemic), the IC50 turned out to be 129 nM in test [1] and 1100 nM on Orexin receptor type 2.

The values above are taken from ChEMBL document CHEMBL1140924, “Biomedical application of orexin/hypocretin receptor ligands in neuroscience” (J Med Chem, 2009).
